Test results reported in ChEMBL document CHEMBL3217680, “Synthesis and antiproliferative activity of some 3-(pyrid-2-yl)-pyrazolines” (Medchemcomm, 2013).
pIC50: −log10 of the molar value. Active and inactive are the calls of the source. No cut-off for these calls is given here.

How the values were obtained:
HT-29 [1] = test: Inhibition of microtubule formation in human HT-29 cells at 5 uM using Dm1a tubulin antibodies by confocal microscopy; format: cell-based
SK-MEL-2 = test: Growth inhibition of human SK-MEL-2 cells; format: functional
T47D = test: Growth inhibition of human T47D cells; format: functional
SNB-19 = test: Growth inhibition of human SNB19 cells; format: functional
DU-145 = test: Growth inhibition of human DU145 cells; format: functional
A549 = test: Growth inhibition of human A549/ATCC cells; format: functional
NCI-H522 = test: Growth inhibition of human NCI-H522 cells; format: functional
Tubulin (Homo sapiens) [2] = molecular target: T1, Tubulin (Homo sapiens) (UniProt P68371+Q9H4B7+P0DPH7+P68366+Q13509+Q71U36+P04350+Q3ZCM7+P07437+P68363+Q9BQE3+Q6PEY2+Q13885+Q9BVA1+Q9BUF5); test: Inhibition of tubulin (unknown origin) polymerization at 20 uM; format: protein-complex assay
[3] = Growth inhibition of human OVCAR8 cells; format: functional; details: OVCAR-8
M14 = test: Growth inhibition of human M14 cells; format: functional
NCI-H226 = test: Growth inhibition of human NCI-H226 cells; format: functional
HT-29 [4] = test: Cell cycle arrest in human HT-29 cells assessed as accumulation at G1 phase at 1 uM by […]propidium iodide staining-based FACS analysis (reference value: 60.2 %); format: functional
[5] = Growth inhibition of human HCT15 cells; format: functional; details: HCT-15
[6] = Growth inhibition of human OVCAR3 cells; format: functional; details: OVCAR-3
HT-29 [7] = test: Cell cycle arrest in human HT-29 cells assessed as accumulation at S phase at 1 uM by […]propidium iodide staining-based FACS analysis (reference value: 13.6 %); format: functional
KM12 = test: Growth inhibition of human KM12 cells; format: functional
[8] = Growth inhibition of human Hs 578T cells; format: functional
[9] = Growth inhibition of human OVCAR5 cells; format: functional; details: OVCAR-5
[10] = Growth inhibition of human BT549 cells; format: functional; details: BT-549
MDA-MB-231 [11] = test: Growth inhibition of human MDA-MB-231 cells; format: functional
HT-29 [12] = test: Cell cycle arrest in human HT-29 cells assessed as accumulation at G1 phase at 100 nM by […]propidium iodide staining-based FACS analysis (reference value: 60.2 %); format: functional
SN12C = test: Growth inhibition of human SN12C cells; format: functional
CCRF-CEM = test: Growth inhibition of human CCRF-CEM cells; format: functional
COLO 205 = test: Growth inhibition of human COLO205 cells; format: functional
IGROV-1 = test: Growth inhibition of human IGROV1 cells; format: functional
SK-OV-3 = test: Growth inhibition of human SKOV3 cells; format: functional
TK-10 = test: Growth inhibition of human TK10 cells; format: functional
HT-29 [13] = test: Antiproliferative activity against human HT-29 cells by MTS assay; format: functional, cell-based
CAKI-1 = test: Growth inhibition of human CAKI-1 cells; format: functional
[14] = Growth inhibition of human EKVX cells; format: functional
HT-29 [15] = test: Cell cycle arrest in human HT-29 cells assessed as accumulation at G2/M phase at 1 uM by […]propidium iodide staining-based FACS analysis (reference value: 22.8 %); format: functional
SW-620 = test: Growth inhibition of human SW620 cells; format: functional
NCI-H322M = test: Growth inhibition of human NCI-H322M cells; format: functional
U-251 = test: Growth inhibition of human U251 cells; format: functional
NCI-H23 = test: Growth inhibition of human NCI-H23 cells; format: functional
MCF7 = test: Growth inhibition of human MCF7 cells; format: functional
HL-60(TB) = test: Growth inhibition of human HL-60(TB) cells; format: functional
SNB-75 = test: Growth inhibition of human SNB75 cells; format: functional
HOP-62 = test: Growth inhibition of human HOP62 cells; format: functional
[16] = Growth inhibition of human UO31 cells; format: functional; details: UO-31
[17] = Growth inhibition of human LOXIMVI cells; format: functional; details: LOX IMVI
HT-29 [18] = test: Cell cycle arrest in human HT-29 cells assessed as accumulation at G2/M phase at 5 uM by […]propidium iodide staining-based FACS analysis (reference value: 22.8 %); format: functional
NCI-H460 = test: Growth inhibition of human NCI-H460 cells; format: functional
HT-29 [19] = test: Cell cycle arrest in human HT-29 cells assessed as accumulation at G1 phase at 5 uM by […]propidium iodide staining-based FACS analysis (reference value: 60.2 %); format: functional
[20] = Growth inhibition of human RXF393 cells; format: functional; details: RXF 393
[21] = Growth inhibition of human OVCAR4 cells; format: functional; details: OVCAR-4
Malme-3M = test: Growth inhibition of human MALME-3M cells; format: functional
HT-29 [22] = test: Cell cycle arrest in human HT-29 cells assessed as accumulation at S phase at 100 nM by […]propidium iodide staining-based FACS analysis (reference value: 13.6 %); format: functional
[23] = Growth inhibition of human UACC257 cells; format: functional; details: UACC-257
HT-29 [24] = test: Cell cycle arrest in human HT-29 cells assessed as accumulation at S phase at 5 uM by […]propidium iodide staining-based FACS analysis (reference value: 13.6 %); format: functional
HT-29 [25] = test: Cell cycle arrest in human HT-29 cells assessed as accumulation at G2/M phase at 100 nM by […]propidium iodide staining-based FACS analysis (reference value: 22.8 %); format: functional
[26] = Growth inhibition of human UACC62 cells; format: functional; details: UACC-62
PC-3 = test: Growth inhibition of human PC3 cells; format: functional
SR = test: Growth inhibition of human SR cells; format: functional
786-0 = test: Growth inhibition of human 786-0 cells; format: functional
MDA-MB-231 [27] = test: Antiproliferative activity against human MDA-MB-231 cells by MTS assay; format: functional, cell-based
SF-268 = test: Growth inhibition of human SF268 cells; format: functional
MDA-MB-435 = test: Growth inhibition of human MDA-MB-435 cells; format: functional
MDA-MB-468 = test: Growth inhibition of human MDA-MB-468 cells; format: functional
ACHN = test: Growth inhibition of human ACHN cells; format: functional
[28] = Growth inhibition of human HOP92 cells; format: functional; details: HOP-92
HT-29 [29] = test: Growth inhibition of human HT-29 cells; format: functional
[30] = Growth inhibition of human HCC2998 cells; format: functional; details: HCC 2998
RPMI-8226 = test: Growth inhibition of human RPMI8226 cells; format: functional
[31] = Growth inhibition of human NCI-ADR-RES cells; format: functional
SK-MEL-28 = test: Growth inhibition of human SK-MEL-28 cells; format: functional
A498 = test: Growth inhibition of human A498 cells; format: functional
[32] = Growth inhibition of human SF539 cells; format: functional; details: SF-539
[33] = Growth inhibition of human MOLT4 cells; format: functional; details: MOLT-4
SK-MEL-5 = test: Growth inhibition of human SK-MEL-5 cells; format: functional
HCT-116 = test: Growth inhibition of human HCT116 cells; format: functional
Tubulin (Homo sapiens) [34] = molecular target: T1, Tubulin (Homo sapiens); test: Induction of tubulin (unknown origin) polymerization at 5 uM; format: protein-complex assay

COc1cc(C(=O)N2N=C(c3ccccn3)C[C@@H]2c2ccccc2)cc(OC)c1OC
inhibition (HT-29 [1]): Active
GI50 (SK-MEL-2): 699 nM
GI50 (T47D): > 100000 nM
GI50 (SNB-19): 1890 nM
GI50 (DU-145): 4260 nM
GI50 (A549): 952 nM
GI50 (NCI-H522): 688 nM
inhibition (Tubulin (Homo sapiens) [2]): Active
GI50 [3]: 3280 nM
GI50 (M14): 801 nM
GI50 (NCI-H226): 1330 nM
Activity (HT-29 [4]): 38.5%
GI50 [5]: 848 nM
GI50 [6]: 719 nM
Activity (HT-29 [7]): 10.3%
GI50 (KM12): 711 nM
GI50 [8]: 9180 nM
GI50 [9]: 4010 nM
GI50 [10]: 5130 nM
GI50 (MDA-MB-231 [11]): 989 nM
Activity (HT-29 [12]): 7.9%
GI50 (SN12C): 3530 nM
GI50 (CCRF-CEM): 2080 nM
GI50 (COLO 205): 585 nM
GI50 (IGROV-1): 7130 nM
GI50 (SK-OV-3): 762 nM
GI50 (TK-10): > 100000 nM
pIC50 (HT-29 [13]): 5.60
GI50 (CAKI-1): 493 nM
GI50 [14]: > 100000 nM
Activity (HT-29 [15]): 49.7%
GI50 (SW-620): 567 nM
GI50 (NCI-H322M): > 100000 nM
GI50 (U-251): 868 nM
GI50 (NCI-H23): 3450 nM
GI50 (MCF7): 324 nM
GI50 (HL-60(TB)): 747 nM
GI50 (SNB-75): 277 nM
GI50 (HOP-62): 1820 nM
GI50 [16]: 5010 nM
GI50 [17]: 1130 nM
Activity (HT-29 [18]): 94.8%
GI50 (NCI-H460): 505 nM
Activity (HT-29 [19]): 2.3%
GI50 [20]: 1030 nM
GI50 [21]: 5950 nM
GI50 (Malme-3M): > 100000 nM
Activity (HT-29 [22]): 2.8%
GI50 [23]: > 100000 nM
Activity (HT-29 [24]): 2%
Activity (HT-29 [25]): 88.8%
GI50 [26]: 541 nM
GI50 (PC-3): > 100000 nM
GI50 (SR): 415 nM
GI50 (786-0): 1540 nM
pIC50 (MDA-MB-231 [27]): 6.16
GI50 (SF-268): 33400 nM
GI50 (MDA-MB-435): 273 nM
GI50 (MDA-MB-468): 417 nM
GI50 (ACHN): 4290 nM
GI50 [28]: > 100000 nM
GI50 (HT-29 [29]): 431 nM
GI50 [30]: 2320 nM
GI50 (RPMI-8226): 66300 nM
GI50 [31]: 519 nM
GI50 (SK-MEL-28): 1510 nM
GI50 (A498): 943 nM
GI50 [32]: 1060 nM
GI50 [33]: 4460 nM
GI50 (SK-MEL-5): 432 nM
GI50 (HCT-116): 586 nM

CN1N=C(c2ccccn2)CC1c1ccccc1 (configuration not stated)
pIC50 (HT-29 [13]): 3.94
pIC50 (MDA-MB-231 [27]): 3.87

COc1cc(C2CC(c3ccccn3)=NN2C(C)=O)cc(OC)c1OC (configuration not stated)
pIC50 (HT-29 [13]): < 3.30
pIC50 (MDA-MB-231 [27]): 4.28

CC(=O)O[C@H]1C(=O)[C@@]2(C)[C@H]([C@H](OC(=O)c3ccccc3)[C@]3(O)C[C@H](OC(=O)[C@H](O)[C@@H](NC(=O)c4ccccc4)c4ccccc4)C(C)=C1C3(C)C)[C@]1(OC(C)=O)CO[C@@H]1C[C@@H]2O
Activity (Tubulin (Homo sapiens) [34]): Active

O=C(N1N=C(c2ccccn2)CC1c1ccccc1)C(F)(F)F (configuration not stated)
pIC50 (HT-29 [13]): < 3.30
pIC50 (MDA-MB-231 [27]): < 3.30

CC(=O)N1N=C(c2ccccn2)CC1c1ccccc1 (configuration not stated)
pIC50 (HT-29 [13]): 3.79
pIC50 (MDA-MB-231 [27]): 3.53

CNC(=S)N1N=C(c2ccccn2)C[C@H]1c1ccccc1
pIC50 (HT-29 [13]): 4.59
pIC50 (MDA-MB-231 [27]): 4.68
